Test results taken from PubChem BioAssay AID1259411 (Chemical Carcinogenesis Research Information System (CCRIS), 2018).
Activity calls are given as the source filed them. The rule behind the calls is not given here.

Tested on: rodent carcinogenicity bioassays, tumor incidence
Experiment: CCRIS carcinogenicity studies
Outline: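 NCI-built, expert-reviewed records of carcinogenicity and related test outcomes (mutagenicity, tumor promotion/inhibition) compiled from published and report sources, historical span 1985-2011, not updated.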

SMILES: CCCCC1C(=O)N(c2ccccc2)N(c2ccccc2)C1=O
- carcinogen call (Species: MOUSE, Strain/Sex: B6C3F1/FEMALE, Route: GAVAGE, Dose: 0, 150, 300 MG/KG IN CORN OIL 5 D/WK FOR 103 WK (STUDY DURATION: 107 WK), Dose: 0, 150, 300 MG/KG IN CORN OIL 5 D/WK FOR 103 WK (STUDY DURATION: 107 WK)): inactive; negative
- carcinogen call (Species: MOUSE, Strain/Sex: B6C3F1/MALE, Route: GAVAGE, Dose: 0, 150, 300 MG/KG IN CORN OIL 5 D/WK FOR 103 WK (STUDY DURATION: 107 WK), Dose: 0, 150, 300 MG/KG IN CORN OIL 5 D/WK FOR 103 WK (STUDY DURATION: 107 WK), Tumor Site: Type of Lesion: LIVER: HEPATOCELLULAR ADENOMA, HEPATOCELLULAR ADENOMA OR CARCINOMA): active; positive
- carcinogen call (Species: RAT, Strain/Sex: F344/FEMALE, Route: GAVAGE, Dose: 0, 50, 100 MG/KG IN CORN OIL 5 D/WK FOR 103 WK (STUDY DURATION: 103 WK), Dose: 0, 50, 100 MG/KG IN CORN OIL 5 D/WK FOR 103 WK (STUDY DURATION: 103 WK), Tumor Site: Type of Lesion: KIDNEY: TRANSITIONAL EPITHELIAL CARCINOMA, TUBULAR CELL ADENOMA): active; positive
- carcinogen call (Species: RAT, Strain/Sex: F344/MALE, Route: GAVAGE, Dose: 0, 50, 100 MG/KG IN CORN OIL 5 D/WK FOR 103 WK (STUDY DURATION: 103 WK), Dose: 0, 50, 100 MG/KG IN CORN OIL 5 D/WK FOR 103 WK (STUDY DURATION: 103 WK), Tumor Site: Type of Lesion: KIDNEY: TUBULAR CELL ADENOMA, TUBULAR CELL ADENOMA OR CARCINOMA): equivocal

SMILES: c1ccc2c(c1)ccc1ncccc12
- carcinogen call (Species: RAT, Strain/Sex: SPRAGUE-DAWLEY/FEMALE, Route: SUBCUTANEOUS, Dose: 0, 200 UMOL/KG IN DMSO INTO SUPRASCAPULAR AREA ON DAY 1 OF LIFE FOLLOWED BY 0, 100 UMOL 1/WK AT WK 2-7 THEN O, 200 UMOL/, Dose: 0, 200 UMOL/KG IN DMSO INTO SUPRASCAPULAR AREA ON DAY 1 OF LIFE FOLLOWED BY 0, 100 UMOL 1/WK AT WK 2-7 THEN O, 200 UMOL/): inactive; negative
- carcinogen call (Species: RAT, Strain/Sex: SPRAGUE-DAWLEY/MALE, Route: SUBCUTANEOUS, Dose: 0, 200 UMOL/KG IN DMSO INTO SUPRASCAPULAR AREA ON DAY 1 OF LIFE FOLLOWED BY 0, 100 UMOL 1/WK AT WK 2-7 THEN O, 200 UMOL/, Dose: 0, 200 UMOL/KG IN DMSO INTO SUPRASCAPULAR AREA ON DAY 1 OF LIFE FOLLOWED BY 0, 100 UMOL 1/WK AT WK 2-7 THEN O, 200 UMOL/): inactive; negative

SMILES: Cc1cnc2ccc3c(nc(NO)n3C)c2n1
- carcinogen call (Species: RAT, Strain/Sex: ACI/SEG/MALE, Route: INTRAPERITONEAL, Dose: 0, 50 UMOL/KG BW 2X/WK FOR 10 WK BEGINNING AT 3 D OF AGE (STUDY DURATION: 68 WK), Tumor Site: Type of Lesion: SOFT TISSUE: TUMOR): active; positive

SMILES: O=C(CO)CO
- carcinogen call (Species: MOUSE, Strain/Sex: SWISS/FEMALE, Route: DERMAL, Dose: 0, 5, 40% AQUEOUS SOLUTION APPLIED 1/WK FOR 80 WK (STUDY DURATION: 80 WK), Dose: 0, 5, 40% AQUEOUS SOLUTION APPLIED 1/WK FOR 80 WK (STUDY DURATION: 80 WK)): inactive; negative
- carcinogen call (Species: MOUSE, Strain/Sex: SWISS/MALE, Route: DERMAL, Dose: 0, 5%, 40% AQUEOUS SOLUTION APPLIED 1/WK FOR 80 WK (STUDY DURATION: 80 WK), Dose: 0, 5%, 40% AQUEOUS SOLUTION APPLIED 1/WK FOR 80 WK (STUDY DURATION: 80 WK)): inactive; negative

SMILES: C=C(C)C
- carcinogen call (Species: MOUSE, Strain/Sex: B6C3F1/FEMALE, Route: INHALATION, Dose: 0, 500, 2000, 8000 PPM 6 HR/D 5 D/WK FOR 105 WK (STUDY DURATION: 105 WK), Dose: 0, 500, 2000, 8000 PPM 6 HR/D 5 D/WK FOR 105 WK (STUDY DURATION: 105 WK)): inactive; negative
- carcinogen call (Species: MOUSE, Strain/Sex: B6C3F1/MALE, Route: INHALATION, Dose: 0, 500, 2000, 8000 PPM 6 HR/D 5 D/WK FOR 105 WK (STUDY DURATION: 105 WK), Dose: 0, 500, 2000, 8000 PPM 6 HR/D 5 D/WK FOR 105 WK (STUDY DURATION: 105 WK)): inactive; negative
- carcinogen call (Species: RAT, Strain/Sex: F344/N/FEMALE, Route: INHALATION, Dose: 0, 500, 2000, 8000 PPM 6 HR/D 5 D/WK FOR 105 WK (STUDY DURATION: 105 WK), Dose: 0, 500, 2000, 8000 PPM 6 HR/D 5 D/WK FOR 105 WK (STUDY DURATION: 105 WK)): inactive; negative
- carcinogen call (Species: RAT, Strain/Sex: F344/N/MALE, Route: INHALATION, Dose: 0, 500, 2000;8000 PPM 6 HR/D 5 D/WK FOR 105 WK (STUDY DURATION: 105 WK), Dose: 0, 500, 2000;8000 PPM 6 HR/D 5 D/WK FOR 105 WK (STUDY DURATION: 105 WK), Tumor Site: Type of Lesion: THYROID GLAND: FOLLICULAR CELL CARCINOMA): equivocal

SMILES: [Be]=[O]
- carcinogen call (Species: RABBIT, Route: INTRAVENOUS, INTRAMEDULLARY, Tumor Site: Type of Lesion: BONE: OSTEOSARCOMA): active; positive

SMILES: Oc1ccc(O)c(-c2ccccc2)c1
- carcinogen call (Species: MOUSE, Strain/Sex: CD-1/FEMALE, Route: DERMAL, Dose: 0, 10 MG IN DMSO 5 D/WK FOR 40 WK (STUDY DURATION: 40 WK)): inactive; negative
- carcinogen call (Species: RAT, Strain/Sex: F344/FEMALE, Route: INTRAVESICULAR, Dose: 0, 1% IN 0.2 ML SALINE 2/WK FOR 5 WK (STUDY DURATION: 36 WK)): inactive; negative

SMILES: CCC(Br)(CC)C(=O)NC(N)=O
- carcinogen call (Species: MOUSE, Strain/Sex: B6C3F1/FEMALE, Route: ORAL, Dose: 0, 1250, 2500 PPM IN DIET, Dose: 0, 1250, 2500 PPM IN DIET): inactive; negative
- carcinogen call (Species: MOUSE, Strain/Sex: B6C3F1/MALE, Route: ORAL, Dose: 0, 1250, 2500 PPM IN DIET, Dose: 0, 1250, 2500 PPM IN DIET): inactive; negative
- carcinogen call (Species: RAT, Strain/Sex: F344/FEMALE, Route: ORAL, Dose: 0, 1250, 2500 PPM IN DIET, Dose: 0, 1250, 2500 PPM IN DIET): inactive; negative
- carcinogen call (Species: RAT, Strain/Sex: F344/MALE, Route: ORAL, Dose: 0, 1250, 2500 PPM IN DIET, Dose: 0, 1250, 2500 PPM IN DIET): inactive; negative
